Measurements reported in patent US10370343B2, “[6,6] Fused bicyclic HDAC8 inhibitors” (FORMA Therapeutics, Inc., priority 2015, dated 2019).
pIC50: −log10 of the molar value.

Key:
[1] = molecular target: T1, Full length human recombinant HDAC8 protein (Homo sapiens, UniProt Q9BY41); assay: In vitro histone deacetylase assay: enzymatic HDAC8 electrophoretic mobility shift assay; assay type: biochemical; conditions: electrophoretic mobility shift assay; enzyme 1 nM; 2 μM fluorescently labeled peptide substrate RHKK(Ac)-NH2; 25° C.; 12 concentrations; read-out: HDAC8 IC50
T1 construct: Full length human recombinant HDAC8 protein was expressed in baculoviral system; made in house
T1 sequence (Q9BY41 1-377): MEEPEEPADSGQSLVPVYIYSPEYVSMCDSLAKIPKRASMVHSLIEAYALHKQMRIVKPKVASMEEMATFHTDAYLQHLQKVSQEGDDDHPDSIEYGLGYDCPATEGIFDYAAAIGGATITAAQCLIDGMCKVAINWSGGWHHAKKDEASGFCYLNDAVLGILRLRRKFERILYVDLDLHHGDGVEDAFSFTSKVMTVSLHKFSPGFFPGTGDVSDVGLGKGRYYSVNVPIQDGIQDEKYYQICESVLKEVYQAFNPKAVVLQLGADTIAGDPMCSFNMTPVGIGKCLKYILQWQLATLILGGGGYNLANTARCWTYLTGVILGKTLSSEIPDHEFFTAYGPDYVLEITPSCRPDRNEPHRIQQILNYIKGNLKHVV

[2] = molecular target: T2, Recombinant N-terminal GST tag full-length human HDAC8 (Homo sapiens, UniProt Q9BY41); assay: HDAC8 probe binding assay, time resolved fluorescence (TRF) format; conditions: compounds grouped by IC50 range (Table 2)
T2 construct: Recombinant N-terminal GST tag full-length human HDAC8; purchased SignalChem H90-30G-1000; host or cells: baculovirus in Sf9 insect cells
T2 sequence (Q9BY41 1-377): T1 sequence (Q9BY41 1-377)
Summary of the method: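 IC50 values come from four-parameter logistic fits of percent inhibition, scaled between DMSO (high) and no-enzyme (low) controls. Time-resolved fluorescence (ex 340, em 485/535 nm) was read after 16 h at room temperature. Enzyme was Sf9-expressed full-length human HDAC8 with an N-terminal GST tag, in a probe-binding format.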

Row | Structure (SMILES) | pIC50 [1] | pIC50 [2]
1 | COc1ccc(CN2C(=O)C(Cc3ccccc3)Oc3ccc(C(=O)NO)cc32)cc1 (centres unmarked) [Compound I-102, 2-benzyl-N-hydroxy-4-(4-methoxybenzyl)-3-oxo-3,4-dihydro-2H-benzo[b][1,4]oxazine-6-carboxamide] | 7.00 to 7.60 | ≥ 7.60
2 | O=C(NO)c1ccc2c(c1)N(Cc1nc3cc(Cl)ccc3s1)C(=O)CO2 [Compound I-290, 4-((5-chlorobenzo[d]thiazol-2-yl)methyl)-N-hydroxy-3-oxo-3,4-dihydro-2H-benzo[b][1,4]oxazine-6-carboxamide] | > 7.60 | ≥ 7.60
3 | O=C(NO)c1ccc2c(c1)N(Cc1c(Cl)cccc1Cl)C(=O)CO2 [Compound I-253, 4-(2,6-dichlorobenzyl)-N-hydroxy-3-oxo-3,4-dihydro-2H-benzo[b][1,4]oxazine-6-carboxamide] | 7.00 to 7.60 | 7.00 to 7.60
4 | O=C(NO)c1ccc2c(c1)N(Cc1ccn(-c3ccccc3)n1)C(=O)CO2 [Compound I-222, N-hydroxy-3-oxo-4-((1-phenyl-1H-pyrazol-3-yl)methyl)-3,4-dihydro-2H-benzo[b][1,4]oxazine-6-carboxamide] | > 7.60 | ≥ 7.60
5 | O=C(NO)c1ccc2c(c1)N(Cc1c(F)cccc1Cl)C(=O)CO2 [Compound I-273, 4-(2-chloro-6-fluorobenzyl)-N-hydroxy-3-oxo-3,4-dihydro-2H-benzo[b][1,4]oxazine-6-carboxamide] | 7.00 to 7.60 | 7.00 to 7.60
6 | O=C(NO)c1ccc2c(c1)N(Cc1cc(F)cc(C(F)(F)F)c1)C(=O)CO2 [Compound I-276, 4-(3-fluoro-5-(trifluoromethyl)benzyl)-N-hydroxy-3-oxo-3,4-dihydro-2H-benzo[b][1,4]oxazine-6-carboxamide] | 7.00 to 7.60 | 7.00 to 7.60
7 | COc1cccc(N2C(=O)COc3ccc(C(=O)NO)cc32)c1 [Compound I-358, N-hydroxy-4-(3-methoxyphenyl)-3-oxo-3,4-dihydro-2H-1,4-benzoxazine-6-carboxamide] | 7.00 to 7.60 | 7.00 to 7.60
8 | CC(c1ccc(S(C)(=O)=O)cc1)N1C(=O)COc2ccc(C(=O)NO)cc21 (centres unmarked) [Compound I-94, N-hydroxy-4-(1-(4-(methylsulfonyl)phenyl)ethyl)-3-oxo-3,4-dihydro-2H-benzo[b][1,4]oxazine-6-carboxamide] | > 7.60 | ≥ 7.60
9 | COc1ccc(CN2C(=O)COc3ccc(C(=O)NO)cc32)cc1C(F)(F)F [Compound I-246, N-hydroxy-4-(4-methoxy-3-(trifluoromethyl)benzyl)-3-oxo-3,4-dihydro-2H-benzo[b][1,4]oxazine-6-carboxamide] | > 7.60 | ≥ 7.60
10 | CS(=O)(=O)c1ccc(CN2C(=O)COc3ccc(C(=O)NO)cc32)cc1 [Compound I-142, N-hydroxy-4-(4-(methylsulfonyl)benzyl)-3-oxo-3,4-dihydro-2H-benzo[b][1,4]oxazine-6-carboxamide] | > 7.60 | ≥ 7.60
11 | O=C(NO)c1ccc2c(c1)N(Cc1nc3cccnc3n1Cc1ccccc1)C(=O)CO2 [Compound I-284, 4-((3-benzyl-3H-imidazo[4,5-b]pyridin-2-yl)methyl)-N-hydroxy-3-oxo-3,4-dihydro-2H-benzo[b][1,4]oxazine-6-carboxamide] | 7.00 to 7.60 | 7.00 to 7.60
12 | CC(c1c(F)cccc1F)N1C(=O)COc2ccc(C(=O)NO)cc21 (centres unmarked) [Compound I-96, 4-(1-(2,6-difluorophenyl)ethyl)-N-hydroxy-3-oxo-3,4-dihydro-2H-benzo[b][1,4]oxazine-6-carboxamide] | 7.00 to 7.60 | 7.00 to 7.60
13 | CC1(C)Oc2ccc(C(=O)NO)cc2N(Cc2nc3cc(Cl)ccc3s2)C1=O [Compound I-296, 4-((5-chlorobenzo[d]thiazol-2-yl)methyl)-N-hydroxy-2,2-dimethyl-3-oxo-3,4-dihydro-2H-benzo[b][1,4]oxazine-6-carboxamide] | > 7.60 | 7.00 to 7.60
14 | Cc1ccc(CN2C(=O)COc3ccc(C(=O)NO)cc32)c(C)c1 [Compound I-280, 4-(2,4-dimethylbenzyl)-N-hydroxy-3-oxo-3,4-dihydro-2H-benzo[b][1,4]oxazine-6-carboxamide] | 7.00 to 7.60 | ≥ 7.60
15 | O=C(NO)c1ccc2c(c1)N(Cc1ccc(F)cc1)C(=O)CO2 [Compound I-37, 4-(4-fluorobenzyl)-N-hydroxy-3-oxo-3,4-dihydro-2H-benzo[b][1,4]oxazine-6-carboxamide] | > 7.60 | ≥ 7.60
16 | CS(=O)(=O)c1cccc(CN2CCOc3ccc(C(=O)NO)cc32)c1 [Compound I-125, N-hydroxy-4-(3-(methylsulfonyl)benzyl)-3,4-dihydro-2H-benzo[b][1,4]oxazine-6-carboxamide] | 6.00 to 7.00 | 7.00 to 7.60

Row | Structure (SMILES) | pIC50 [1] | pIC50 [2]
17 | O=C(NO)c1ccc2c(c1)N(Cc1nc3ccccc3o1)C(=O)CO2 [Compound I-288, 4-(benzo[d]oxazol-2-ylmethyl)-N-hydroxy-3-oxo-3,4-dihydro-2H-benzo[b][1,4]oxazine-6-carboxamide] | > 7.60 | ≥ 7.60
18 | CC1COc2ccc(C(=O)NO)cc2N1Cc1ccccc1 (centres unmarked) [Compound I-154, 4-benzyl-N-hydroxy-3-methyl-3,4-dihydro-2H-benzo[b][1,4]oxazine-6-carboxamide] | 7.00 to 7.60 | 7.00 to 7.60
19 | O=C(NO)c1ccc2c(c1)N(Cc1cccc(SC(F)(F)F)c1)C(=O)CO2 [Compound I-263, N-hydroxy-3-oxo-4-(3-((trifluoromethyl)thio)benzyl)-3,4-dihydro-2H-benzo[b][1,4]oxazine-6-carboxamide] | > 7.60 | ≥ 7.60
20 | COc1ccc(CN2C(=O)C(C(C)C)Oc3ccc(C(=O)NO)cc32)cc1 (centres unmarked) [Compound I-100, N-hydroxy-2-isopropyl-4-(4-methoxybenzyl)-3-oxo-3,4-dihydro-2H-benzo[b][1,4]oxazine-6-carboxamide] | > 7.60 | ≥ 7.60
21 | O=C(NO)c1ccc2c(c1)N(Cc1cccc(Cl)c1Cl)C(=O)CO2 [Compound I-254, 4-(2,3-dichlorobenzyl)-N-hydroxy-3-oxo-3,4-dihydro-2H-benzo[b][1,4]oxazine-6-carboxamide] | > 7.60 | ≥ 7.60
22 | Cc1ccc(CN2C(=O)COc3ccc(C(=O)NO)cc32)cc1 [Compound I-38, N-hydroxy-4-(4-methylbenzyl)-3-oxo-3,4-dihydro-2H-benzo[b][1,4]oxazine-6-carboxamide] | > 7.60 | ≥ 7.60
23 | Cc1nc(-c2ccccc2)sc1CN1C(=O)COc2ccc(C(=O)NO)cc21 [Compound I-76, N-hydroxy-4-((4-methyl-2-phenylthiazol-5-yl)methyl)-3-oxo-3,4-dihydro-2H-benzo[b][1,4]oxazine-6-carboxamide] | 7.00 to 7.60 | 7.00 to 7.60
24 | O=C(NO)c1ccc2c(c1)N(Cc1ccccc1)CCO2 [Compound I-116, 4-benzyl-N-hydroxy-3,4-dihydro-2H-benzo[b][1,4]oxazine-6-carboxamide] | 6.00 to 7.00 | 7.00 to 7.60
25 | CS(=O)(=O)c1cccc(CN2C(=O)COc3ccc(C(=O)NO)cc32)c1 [Compound I-145, N-hydroxy-4-(3-(methylsulfonyl)benzyl)-3-oxo-3,4-dihydro-2H-benzo[b][1,4]oxazine-6-carboxamide] | 7.00 to 7.60 | 7.00 to 7.60
26 | COc1ccc(CN2C(=O)C(CCN)Oc3ccc(C(=O)NO)cc32)cc1 (centres unmarked) [Compound I-104, 2-(2-aminoethyl)-N-hydroxy-4-(4-methoxybenzyl)-3-oxo-3,4-dihydro-2H-benzo[b][1,4]oxazine-6-carboxamide] | 7.00 to 7.60 | ≥ 7.60
27 | COc1ccc(CN2C(=O)C(c3ccccc3)Oc3ccc(C(=O)NO)cc32)cc1 (centres unmarked) [Compound I-101, N-hydroxy-4-(4-methoxybenzyl)-3-oxo-2-phenyl-3,4-dihydro-2H-benzo[b][1,4]oxazine-6-carboxamide] | > 7.60 | ≥ 7.60
28 | O=C(NO)c1ccc2c(c1)N(Cc1ccc(SC(F)(F)F)cc1)C(=O)CO2 [Compound I-264, N-hydroxy-3-oxo-4-(4-((trifluoromethyl)thio)benzyl)-3,4-dihydro-2H-benzo[b][1,4]oxazine-6-carboxamide] | > 7.60 | ≥ 7.60
29 | O=C(NO)c1ccc2c(c1)N(Cc1nc3ccc(F)cc3o1)C(=O)CO2 [Compound I-218, 4-((6-fluorobenzo[d]oxazol-2-yl)methyl)-N-hydroxy-3-oxo-3,4-dihydro-2H-benzo[b][1,4]oxazine-6-carboxamide] | > 7.60 | ≥ 7.60
30 | O=C(NO)c1ccc2c(c1)N(Cc1cnn(-c3ccccc3)c1)C(=O)CO2 [Compound I-223, N-hydroxy-3-oxo-4-((1-phenyl-1H-pyrazol-4-yl)methyl)-3,4-dihydro-2H-benzo[b][1,4]oxazine-6-carboxamide] | > 7.60 | ≥ 7.60
31 | O=C(NO)c1ccc2c(c1)N(Cc1cccc(Cl)c1)C(=O)CO2 [Compound I-143, 4-(3-chlorobenzyl)-N-hydroxy-3-oxo-3,4-dihydro-2H-benzo[b][1,4]oxazine-6-carboxamide] | > 7.60 | ≥ 7.60
